{
  "source": "patent US20250000881A1",
  "about": "“TREATMENT OF TREATMENT RESISTANT […] PSILOCYBIN” (COMPASS […], priority 2021, published 2025)",
  "tested_on": "adult subjects with TRD",
  "assay": "Phase 2b randomised double-blind trial in TRD: MADRS total score, response, remission, sustained response",
  "format": "in vivo, human",
  "details": "for Protocol-defined sustained response (MADRS response criteria from week 3 until week 12): up to week 12",
  "description": "Studies with more rigorous designs are needed to better the therapeutic potential of psilocybin in treatment-resistant depression (TRD). The aim of this study was to assess the effectiveness of 3 different doses of psilocybin (1 mg, 10 mg, and 25 mg) in TRD.\nThis was a Phase 2b, international multicentre, randomized, fixed dose, double-blind trial. The study population included adult men and women, 18 years of age and older, with TRD. […] Augmentation counts as a second treatment, provided it was approved for the adjunctive treatment of MDD in that country.\nThe treatment period was determined the optimal therapeutic dose; 233 subjects were randomised in an approximately 1:1:1 ratio to receive 1 mg psilocybin (79 subjects), 10 mg psilocybin (75 subjects), or 25 mg psilocybin (79 subjects). Average patient baseline MADRS values were 31.9 in the 25 mg group, 33.0 in the 10 mg group, and 32.7 in the 1 mg group. This represents moderate to severe depression (≥31=cut-off for severe depression based on MADRS).\nThe primary objective of this study was to evaluate the efficacy of psilocybin (25 mg or 10 mg) compared to 1 mg, administered under supportive conditions to adult subjects with TRD, in improving depressive symptoms, as assessed by the change in the Montgomery-Asberg Depression Rating Scale (MADRS) total score from baseline. Baseline is defined as the assessment score obtained on Day-1. The primary time point is week 3; this variable was analyzed for the change from Baseline to day 1, and weeks 1, 3, 6, 9, and 12 of the study.\nAdditional objectives of this study were to assess the efficacy of psilocybin compared to 1 mg psilocybin on the: • (a) proportion of subjects with response defined as a ≥50% decrease in MADRS total score from baseline to week 3. This was assessed at day 1 and at weeks 1, 6, 9, and 12 of the study. • (b) proportion of subjects who have a sustained response at week 12. Sustained response is defined as the proportion of patients fulfilling response criteria at any visit up to and including week 3, that also fulfils response criteria at all subsequent visits up to and including week 12. Response is defined as ≥50% decrease in MADRS total score from baseline.\nSubjects were randomized to the appropriate therapy after it was confirmed at baseline (Visit 2) that the subject remained eligible to participate in the study. Randomization was stratified by country. Each subject was assigned 1 treatment bottle containing 5 capsules packaged in a double-blind fashion, depending on the randomized treatment arm, the bottle will contain 1 of the following: • (a) 10-mg treatment bottle: 2×5-mg capsules and 3×placebo capsules; • (b) 25-mg treatment bottle: 5×5-mg capsules; or • (c) 1-mg treatment bottle: 1×1-mg capsule and 4×placebo capsules.\nThe change from baseline in MADRS total score at week 3 will be evaluated with a mixed effects model for repeated measures analysis. The model includes treatment, visit, study site, prior psychedelic experience, treatment by visit interaction, subject as a random effect, and baseline MADRS total score. Comparison of the psilocybin optimal dose versus 1 mg psilocybin was performed at the 0.05 testing level. A sensitivity analysis was performed on the primary mixed model repeated measures model adding treatment by study site or country interaction into the model. If it was significant (at the 10% level), then further investigations of sites were performed.\n[…] additional efficacy endpoints that are dichotomous variables (proportion of subjects who are responders, remitters, and sustained responders) were analyzed using the Cochran Mantel Haenszel chi square test, stratified by country, to compare the psilocybin optimal therapeutic dose versus 1 mg psilocybin. A stepdown procedure to correct for multiplicity was employed. […]",
  "data": [
    {"smiles": "CN(C)CCc1c[nH]c2cccc(OP(=O)(O)O)c12", "note": "[COMP360, psilocybin]", "values": [
      {"measurement": "MADRS total score change from baseline, LS mean", "setting": "1 mg (N = 79), Day 2", "result": "−9.0"},
      {"measurement": "MADRS total score change from baseline, LS mean", "setting": "1 mg (N = 79), Week 1", "result": "−6.8"},
      {"measurement": "MADRS total score change from baseline, LS mean", "setting": "1 mg (N = 79), Week 3", "result": "−5.5"},
      {"measurement": "MADRS total score change from baseline, LS mean", "setting": "1 mg (N = 79), Week 6", "result": "−6.3"},
      {"measurement": "MADRS total score change from baseline, LS mean", "setting": "1 mg (N = 79), Week 9", "result": "−5.4"},
      {"measurement": "MADRS total score change from baseline, LS mean", "setting": "1 mg (N = 79), Week 12", "result": "−6.0"},
      {"measurement": "Sustained response (MADRS response at week 3 and week 12 and at least one of week 6 and week 9)", "setting": "1 mg group", "result": 10.1, "unit": "%"},
      {"measurement": "Protocol-defined sustained response (MADRS response criteria from week 3 until week 12)", "setting": "1 mg group", "result": 10.1, "unit": "%"},
      {"measurement": "MADRS total score change from baseline, LS mean", "setting": "10 mg (N = 75), Day 2", "result": "−12.0"},
      {"measurement": "MADRS total score change from baseline, LS mean", "setting": "10 mg (N = 75), Week 1", "result": "−9.1"},
      {"measurement": "MADRS total score change from baseline, LS mean", "setting": "10 mg (N = 75), Week 3", "result": "−7.9"},
      {"measurement": "MADRS total score change from baseline, LS mean", "setting": "10 mg (N = 75), Week 6", "result": "−6.0"},
      {"measurement": "MADRS total score change from baseline, LS mean", "setting": "10 mg (N = 75), Week 9", "result": "−6.1"},
      {"measurement": "MADRS total score change from baseline, LS mean", "setting": "10 mg (N = 75), Week 12", "result": "−5.7"},
      {"measurement": "MADRS total score change from baseline, LS mean diff vs 1 mg", "setting": "10 mg vs 1 mg, Day 2", "result": "−3.0"},
      {"measurement": "MADRS total score change from baseline, LS mean diff vs 1 mg", "setting": "10 mg vs 1 mg, Week 1", "result": "−2.2"},
      {"measurement": "MADRS total score change from baseline, LS mean diff vs 1 mg", "setting": "10 mg vs 1 mg, Week 3", "result": "−2.4"},
      {"measurement": "MADRS total score change from baseline, LS mean diff vs 1 mg", "setting": "10 mg vs 1 mg, Week 6", "result": 0.3},
      {"measurement": "MADRS total score change from baseline, LS mean diff vs 1 mg", "setting": "10 mg vs 1 mg, Week 9", "result": "−0.7"},
      {"measurement": "MADRS total score change from baseline, LS mean diff vs 1 mg", "setting": "10 mg vs 1 mg, Week 12", "result": 0.3},
      {"measurement": "MADRS total score change from baseline, LS mean", "setting": "25 mg (N = 79), Day 2", "result": "−15.0"},
      {"measurement": "MADRS total score change from baseline, LS mean", "setting": "25 mg (N = 79), Week 1", "result": "−13.1"},
      {"measurement": "MADRS total score change from baseline, LS mean", "setting": "25 mg (N = 79), Week 3", "result": "−12.0"},
      {"measurement": "MADRS total score change from baseline, LS mean", "setting": "25 mg (N = 79), Week 6", "result": "−11.7"},
      {"measurement": "MADRS total score change from baseline, LS mean", "setting": "25 mg (N = 79), Week 9", "result": "−9.4"},
      {"measurement": "MADRS total score change from baseline, LS mean", "setting": "25 mg (N = 79), Week 12", "result": "−9.6"},
      {"measurement": "Sustained response (MADRS response at week 3 and week 12 and at least one of week 6 and week 9)", "setting": "25 mg group", "result": 24.1, "unit": "%"},
      {"measurement": "Protocol-defined sustained response (MADRS response criteria from week 3 until week 12)", "setting": "25 mg group", "result": 20.3, "unit": "%"},
      {"measurement": "MADRS total score change from baseline, LS mean diff vs 1 mg", "setting": "25 mg vs 1 mg, Day 2", "result": "−5.9"},
      {"measurement": "MADRS total score change from baseline, LS mean diff vs 1 mg", "setting": "25 mg vs 1 mg, Week 1", "result": "−6.3"},
      {"measurement": "MADRS total score change from baseline, LS mean diff vs 1 mg", "setting": "25 mg vs 1 mg, Week 3 (primary endpoint)", "result": "−6.6"},
      {"measurement": "MADRS total score change from baseline, LS mean diff vs 1 mg", "setting": "25 mg vs 1 mg, Week 6", "result": "−5.3"},
      {"measurement": "MADRS total score change from baseline, LS mean diff vs 1 mg", "setting": "25 mg vs 1 mg, Week 9", "result": "−4.0"},
      {"measurement": "MADRS total score change from baseline, LS mean diff vs 1 mg", "setting": "25 mg vs 1 mg, Week 12", "result": "−3.6"}
    ]}
  ]
}
